In US20060104985A1, “Dengue virus infection inhibitor” (priority 2002, published 2006):

Tests used:
[1] = tested on: dengue virus (D2Th7 strain); experiment: TLC/virus-binding assay of glycolipids; settings: HPLC fractions of the neutral glycolipid fraction of mosquito-derived C6/36 cells
Experimental: The neutral glycolipid fractions I to IV obtained in the foregoing (c) (10 μl each), and as a reference standard, LacCer (1 μl), CTH (2 μl), paragloboside (PG: Galβ1-4GlcNAcβ1-3Galβ1-4Glcβ1-1′Cer) (2 μl), GA1 (Galβ1-3GalNAcβ1-4Galβ1-4Glcβ1-1′Cer) (2 μl), globoside (GalNAcβ1-3Galα1-4Galβ1-4Glcβ1-1′Cer) (2 μl) were spotted on TLC plates (Polygram Sil G), developed with acetone once, and developed with CHCl3/MeOH/12 mM MgCl2 (50/40/10, by vol). Then, orcinol reagent was sprayed and the plate was heated at 110° C., whereby color reaction was developed. With regard to the neutral glycolipid fractions I to IV, TLC/virus-binding assay was carried out by the method described above.
The neutral glycolipid fraction II-2 (10 μl) obtained by the foregoing method described in (1), PI (10 μl), PG (2 μl) and globoside (1 μl) were spotted on a TLC plate (Polygram Sil G), developed with acetone once, and developed with CHCl3/MeOH/12 mM MgCl2 (50/40/10, by vol). […]
Subsequently, 2.5 ml of human anti-flavivirus antiserum diluted to 1,000-fold with Solution A was added and reacted at room temperature for 1 hour. […] Finally, the plates were reacted with 2.5 ml of a color-developing substrate solution (0.1 M citrate buffer pH 6.0 (2.5 ml), 0.11 M 4-chloro-1-naphthol in CH3CN (50 μl), 0.06 M DEPDA in CH3CN (50 μl), 30% H2O2 (5 μl)), and bound virus particles were detected. […]

[2] = tested on: binding of dengue virus to K562 cells; experiment: Inhibition of binding of dengue virus to K562 cell surface, flow cytometer (Example 2); assay type: cell-based
Experimental: After K562 cells were cultured until confluent, the cells were dispensed into a microtube to be 2×10^5 cells/0.1 ml. After this microtube was centrifuged at 4° C. for 2 minutes at 10,000 rpm, the obtained cell pellet was washed once with 1 ml of PBS containing 0.1% BSA. After a dengue virus solution (2,000 units/ml) and PG (0, 100, 200 or 500 μM) or GA1 (500 μM), which is a reference glycolipid, were preincubated in PBS containing 0.1% BSA at 4° C. for 1 hour, 100 μl of each of the solutions was added to K562 cells, and the virus was allowed to bind to the cell at 4° C. for 1 hour. Incidentally, as virus(−), only PBS containing 0.1% BSA was added in the same amount. After the reaction, the cells were washed 3 times with 1 ml of chilled PBS(−), 100 μl of a solution of human anti-flavivirus antiserum (lot No. 1), which had been diluted to 200-fold, was added, respectively, as a primary antibody, well suspended, and reacted at 4° C. for 30 minutes. The cells were washed 3 times with 1 ml of chilled PBS(−), and 100 μl of a solution of a FITC-labeled goat anti-human IgG (Zymed), which had been diluted to 50-fold, was added, respectively, as a secondary antibody and shielded from light. Then, they were reacted at 4° C. for 30 minutes. […]

[3] = tested on: binding of dengue virus to K562 cells; experiment: Inhibitory activity on binding of dengue virus to K562 cell surface, flow cytometer (Example 3); assay type: cell-based
Experimental: After K562 cells were cultured until confluent, the cells were dispensed into a microtube to be 4×10^5 cells/0.1 ml. After this microtube was centrifuged at 4° C. for 3 minutes at 3,500 rpm, the obtained cell pellet was washed once with 1 ml of PBS containing 0.1% BSA. After it was further centrifuged at 4° C. for 3 minutes at 3,500 rpm, a dengue virus stock solution was diluted with PBS containing 0.1% BSA to the concentrations of 5,000 units/ml, 2,000 units/ml, 1,000 units/ml, and 500 units/ml, respectively. Then, 100 μl of each of the solutions was added to the K562 cells, and reacted at 4° C. for 1 hour.
Incidentally, as virus(−), a solution to which only PBS containing 0.1% BSA was added in the same amount was used.
After the reaction, the cells were washed 3 times with 1 ml of chilled PBS(−), 100 μl of a solution of human anti-flavivirus antiserum (lot No. 1), which had been diluted to 200-fold, was added, respectively, as a primary antibody, well suspended, and reacted at 4° C. for 30 minutes. […]
K562 cells (1×10^5 cells) were seeded on a 24-well culture plate, and the total volume was made up to 1 ml with RPMI medium. […] The solution was transferred to a microtube, and virus binding was evaluated by the method described in (1).

[4] = tested on: infection of K562 cells with dengue virus; experiment: Virus infection test of K562 cells with oligosaccharide-pretreated dengue virus, antigen positive cells by flow cytometer; assay type: cell-based; settings: virus pretreated with oligosaccharide at 28° C. for 30 minutes, infection at 37° C. for 2 hours
Experimental: In any cases, 1 mM stock solution was prepared with sterile PBS(−). This solution was appropriately diluted and used for the infection inhibition test.
Dilution was carried out with serum-free RPMI medium (SF-RPMI) containing 0.2% BSA so as to give a final virus concentration of 3×105 FFU (focus forming unit)/sample, and the solution was stirred well and placed on ice.
To 630 μl (virus volume per 1 sample) of the dengue virus solution prepared in (2) described above, an equivalent amount of a diluted solution containing an oligosaccharide was added, stirred well, and incubated at 28° C. for 30 minutes. This solution was used as a pretreated virus solution.
In addition, as a negative control, the one obtained by mixing PBS(−) with the virus solution was used.
After K562 cells were washed once with SF-RPMI, the cells were prepared at 1×10^6 cells/ml with 0.1% BSA-SF-RPMI. This cell suspension was dispensed in 100 μl aliquots into tubes. Thereto was added the pretreated virus solution, stirred gently, and infection of cells was carried out at 37° C. for 2 hours. During this time, the solution in the tube was gently stirred every 20 minutes. After the solution was centrifuged at 3,400 rpm for 3 minutes, the virus solution was removed, and the cells were washed 3 times with 0.1% BSA-SF-RPMI. To the cell pellet, 2 ml of RPMI medium containing 2% serum (2% FCS-RPMI) was added, and suspended. […]

[5] = tested on: dengue virus infection; settings: rhesus monkeys; cited from earlier work

Galβ1-4GlcNAcβ1-3Manβ1-4Glcβ1-1Cer [Fraction 15]
binding of purified glycolipids to dengue virus on TLC plate (FIG. 8) [1]: binds to the virus very strongly

GlcNAcβ1-3Manβ1-4Glcβ1-1Cer [Fraction 13]
binding of purified glycolipids to dengue virus on TLC plate (FIG. 8) [1]: binds to the virus very strongly

Galβ1-4GlcNAcβ1-3Galβ1-4Glcβ1-1′Cer [paragloboside]
inhibition of binding of dengue virus to K562 cells (FIG. 5) ([2]; PG 100, 200 or 500 μM preincubated with virus 2,000 units/ml at 4° C. for 1 hour): inhibited depending on the concentration of PG
inhibition of the binding of dengue virus to K562 cells (FIG. 6) ([3]; paragloboside 100, 200 or 500 μM, virus 2,000 units/ml): inhibition of the binding of dengue virus to K562 cells is caused depending on the concentration of paragloboside

CC(=O)N[C@H]1[C@H](O[C@H]2[C@@H](O)[C@@H](CO)O[C@@H](O[C@H]3[C@H](O)[C@@H](O)C(O)O[C@@H]3CO)[C@@H]2O)O[C@H](CO)[C@@H](O[C@@H]2O[C@H](CO)[C@H](O)[C@H](O)[C@H]2O)[C@@H]1O (stereo partly drawn) [paragloboside saccharide chain, Galβ1-4GlcNAcβ1-3Galβ1-4Glc]
inhibition of infection of K562 cells with dengue virus (FIG. 9) [4]: inhibited the infection of K562 cells with dengue virus depending on the concentration

Galβ1-3GalNAcβ1-4Galβ1-4Glcβ1-1′Cer [GA1, reference compound]
inhibition of binding of dengue virus to K562 cells (FIG. 5) ([2]; 500 μM, preincubated with virus 2,000 units/ml at 4° C. for 1 hour): could not inhibit
effect on binding of dengue virus to the cell surface (FIG. 6) ([3]; negative control, GA1 500 μM): not affected at all

NC(=O)c1ncn([C@@H]2O[C@H](CO)[C@@H](O)[C@H]2O)n1 [ribavirin]
adverse effects induced [5]: anemia or thrombocytosis
preventive effect against dengue virus infection [5]: did not show a preventive effect
